target: T1, Anthrax Lethal Factor (ALF) (Bacillus anthracis, UniProt P15917); test: not given; format: biochemical; conditions: not given
T1 sequence (P15917 34-809 limits assumed): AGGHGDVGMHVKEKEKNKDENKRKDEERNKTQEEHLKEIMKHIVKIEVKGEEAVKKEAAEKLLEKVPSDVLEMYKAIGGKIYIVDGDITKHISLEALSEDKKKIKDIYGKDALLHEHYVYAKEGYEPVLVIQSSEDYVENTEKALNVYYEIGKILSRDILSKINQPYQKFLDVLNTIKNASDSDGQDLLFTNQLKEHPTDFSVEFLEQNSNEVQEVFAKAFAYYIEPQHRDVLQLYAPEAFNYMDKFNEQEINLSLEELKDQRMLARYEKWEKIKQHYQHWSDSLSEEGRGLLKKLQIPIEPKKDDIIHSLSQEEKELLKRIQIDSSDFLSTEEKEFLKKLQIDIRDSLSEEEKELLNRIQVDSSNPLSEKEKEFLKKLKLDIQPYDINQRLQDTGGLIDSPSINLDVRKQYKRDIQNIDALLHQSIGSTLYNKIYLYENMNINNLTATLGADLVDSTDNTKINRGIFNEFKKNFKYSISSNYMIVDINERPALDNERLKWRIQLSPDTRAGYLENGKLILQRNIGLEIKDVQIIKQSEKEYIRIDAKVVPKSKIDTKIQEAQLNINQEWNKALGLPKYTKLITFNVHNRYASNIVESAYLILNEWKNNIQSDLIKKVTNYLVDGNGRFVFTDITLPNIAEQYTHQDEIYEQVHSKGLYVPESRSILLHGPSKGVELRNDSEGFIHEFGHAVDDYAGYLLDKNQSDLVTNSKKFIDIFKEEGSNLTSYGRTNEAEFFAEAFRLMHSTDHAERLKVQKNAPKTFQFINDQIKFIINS

Row | Compound | Activity by Gel, % @ 200 | Activity by Gel, % @ 100
1 | CC(C)c1nc(-c2ccccc2)c(-c2ccccc2)n(O)c1=O [Compound 1, 3-isoprpyl-5,6dipheny-1-1-hydroxy-2-oxo-1,2-dihydropyrazine] | 0% @ 200 | –
2 | CCc1nc(C(C)C)c(=O)n(O)c1CC [Compound 2, 3-isopropyl-5,6diethyl-1-hydroxy-2-oxo-1,2dihydropyrazine] | 0% @ 200 | –
3 | Cc1c(-c2ccccc2)nc(CC(C)C)c(=O)n1O [Compound 3, 1-hydroxy-6-methyl-3-(2-methylpropyl)-5-phenylhydropyrazin-2-one] | 0% @ 200 | –
4 | CC(C)Cc1nc(-c2ccccc2)cn(O)c1=O [Compound 4, 1-hydroxy-3-(2-methylpropyl)-5-phenylhydropyrazin-2-one] | 0% @ 200 | –
5 | O=c1c(Cc2ccccc2)nc(-c2ccccc2)c(-c2ccccc2)n1O [Compound 5, 1-hydroxy-5,6-diphenyl-3-benzylhydropyrazin-2-one] | 45% @ 200 | –
6 | O=c1c(Cc2ccc(-c3ccccc3)cc2)nc(-c2ccccc2)c(-c2ccccc2)n1O [Compound 11, 3-(4′-phenyl)-benzyl-5,6diphenyl-1-hydroxy-2-oxo-1,2-dihydropyrazine] | – | 2% @ 100

target: T1, Anthrax Lethal Factor (ALF); test: biochemical; format: biochemical; conditions: not given

Row | Compound | IC50 | Activity by plate, % @ 100
7 | O=c1c(Cc2ccccc2)nc(-c2ccccc2)c(-c2ccccc2)n1O [Compound 5, 1-hydroxy-5,6-diphenyl-3-benzylhydropyrazin-2-one] | 6 µM | –
8 | Cc1c(-c2ccccc2)nc(Cc2ccccc2)c(=O)n1O [Compound 6, 1-hydroxy-6-methyl-5-phenyl-3-benzylhydropyrazin-2-one] | 70 µM | –
9 | O=c1c(Cc2ccccc2)nc(-c2ccccc2)cn1O [Compound 7, 1-hydroxy-5-phenyl-3-benzylhydropyrazin-2-one] | 15 µM | –
10 | Cc1c(-c2ccccc2)nc(Cc2ccc(-c3ccccc3)cc2)c(=O)n1O [Compound 12, 3-(4′-phenyl)-benzyl-5-phenyl-6-methyl-1-hydroxy-2-oxo-1,2-dihydropyrazine] | 15 µM | –
11 | O=c1c(Cc2ccccc2)nc(-c2ccc(N3CCOCC3)cc2)cn1O [Compound 14, 1-hydroxy-5-(4-morpholin-4-ylphenyl)-3-benzylhydropyrazin-2-one] | – | 0% @ 100
12 | O=c1c(Cc2ccccc2)nc(-c2ccc(F)cc2)cn1O [Compound 15, 5-(4-fluorophenyl)-1-hydroxy-3-benzylhydropyrazin-2-one] | – | 33% @ 100
13 | O=c1c(Cc2ccccc2)nc(-c2cccs2)cn1O [Compound 16, 1-hydroxy-3-benzyl-5-(2-thienyl)hydropyrazin-2-one] | – | 33% @ 100
14 | O=c1c(Cc2ccccc2)nc(-c2ccc(-c3ccccc3)cc2)cn1O [Compound 17, 1-hydroxy-3-benzyl-5-(4-phenylphenyl)hydropyrazin-2-one] | – | 41% @ 100
15 | O=c1c(Cc2ccccc2)nc(-c2ccc(C3CCCCC3)cc2)cn1O [Compound 18, 5-(4-cyclohexylphenyl)-1-hydroxy-3-benzylhydropyrazin-2-one] | 8 µM | –
16 | O=c1c(Cc2ccccc2)nc(-c2ccc3ccccc3c2)cn1O [Compound 19, 1-hydroxy-5-(2-naphthyl)-3-benzylhydropyrazin-2-one] | – | 59% @ 100
17 | O=c1c(Cc2ccccc2)nc(-c2ccc(Br)cc2)cn1O [Compound 20, 5-(4-bromophenyl)-1-hydroxy-3-benzylhydropyrazin-2-one] | – | 63% @ 100
18 | O=c1c(Cc2ccccc2)nc(-c2ccc(O)cc2)cn1O [Compound 21, 1-hydroxy-5-(4-hydroxyphenyl)-3-benzylhydropyrazin-2-one] | – | 7% @ 100
19 | O=c1c(Cc2ccccc2)nc(-c2ccc3c(c2)OCO3)cn1O [Compound 22, 5-(2H-benzo[d]1,3-dioxolen-5-yl)-1-hydroxy-3-benzylhydropyrazin-2-one] | – | 39% @ 100
20 | O=c1c(Cc2ccccc2)nc(-c2ccc([N+](=O)[O-])cc2)cn1O [Compound 23, 1-hydroxy-5-(4-nitrophenyl)-3-benzylhydropyrazin-2-one] | – | 7% @ 100
21 | N#Cc1ccc(-c2cn(O)c(=O)c(Cc3ccccc3)n2)cc1 [Compound 24, 4-[4-hydroxy-5-oxo-6-benzyl-4-hydropyrazin-2-yl]benzenecarbonitrile] | – | 41% @ 100
22 | CC(=O)Nc1ccc(-c2cn(O)c(=O)c(Cc3ccccc3)n2)cc1 [Compound 25, N-{4-[4-hydroxy-5-oxo-6-benzyl-4-hydropyrazin-2-yl]phenyl}acetamide] | – | 19% @ 100
23 | O=c1c(Cc2ccc(-c3ccccc3)cc2)nc(-c2ccc(N3CCOCC3)cc2)cn1O [Compound 26, 1-hydroxy-5-(4-morpholin-4-ylphenyl)-3-[(4-phenylphenyl)methyl] hydropyrazin-2-one] | – | 37% @ 100

Row | Compound | IC50 | Activity by plate, % @ 100
24 | O=c1c(Cc2ccc(-c3ccccc3)cc2)nc(-c2ccc(F)cc2)cn1O [Compound 27, 5-(4-fluorophenyl)-1-hydroxy-3-[(4-phenylphenyl)methyl]hydropyrazin-2-one] | – | 12% @ 100
25 | O=c1c(Cc2ccc(-c3ccccc3)cc2)nc(-c2ccc(-c3ccccc3)cc2)cn1O [Compound 28, 1-hydroxy-5-(4-phenylphenyl)-3-[(4-phenylphenyl)methyl]hydropyrazin-2-one] | 12 µM | –
26 | O=c1c(Cc2ccc(-c3ccccc3)cc2)nc(-c2ccc(C3CCCCC3)cc2)cn1O [Compound 29, 5-(4-cyclohexylphenyl)-1-hydroxy-3-[(4-phenylphenyl)methyl] hydropyrazin-2-one] | – | 59% @ 100
27 | O=c1c(Cc2ccc(-c3ccccc3)cc2)nc(-c2ccc3ccccc3c2)cn1O [Compound 30, 1-hydroxy-5-(2-naphthyl)-3-[(4-phenylphenyl)methyl]hydropyrazin-2-one] | – | 54% @ 100
28 | O=c1c(Cc2ccc(-c3ccccc3)cc2)nc(-c2ccc(Br)cc2)cn1O [Compound 31, 5-(4-bromophenyl)-1-hydroxy-3-[(4-phenylphenyl)methyl]hydropyrazin-2-one] | 5 µM | –
29 | O=c1c(Cc2ccc(-c3ccccc3)cc2)nc(-c2ccc3c(c2)OCO3)cn1O [Compound 32, 5-(2H-benzo[d]1,3-dioxolen-5-yl)-1-hydroxy-3-[(4-phenylphenyl)methyl] hydropyrazin-2-one] | – | 40% @ 100
30 | N#Cc1ccc(-c2cn(O)c(=O)c(Cc3ccc(-c4ccccc4)cc3)n2)cc1 [Compound 33, 4-{4-hydroxy-5-oxo-6-[(4-phenylphenyl)methyl]-4-hydropyrazin-2-yl} benzenecarbonitrile] | – | 51% @ 100
31 | O=c1c(Cc2ccccc2)nc(-c2ccc(Cl)c(Cl)c2)cn1O [Compound 39, 5-(3,4-dichlorophenyl)-1-hydroxy-3-benzylhydropyrazin-2-one] | – | 45% @ 100
32 | Cc1cc(-c2cn(O)c(=O)c(Cc3ccccc3)n2)ccc1Cl [Compound 40, 5-(4-chloro-3-methylphenyl)-1-hydroxy-3-benzylhydropyrazin-2-one] | – | 18% @ 100
33 | Cc1ccc(-c2cn(O)c(=O)c(Cc3ccccc3)n2)cc1 [Compound 41, 1-hydroxy-5-(4-methylphenyl)-3-benzylhydropyrazin-2-one] | – | 13% @ 100
34 | CCCCCc1ccc(-c2cn(O)c(=O)c(Cc3ccccc3)n2)cc1 [Compound 42, 1-hydroxy-5-(4-pentylphenyl)-3-benzylhydropyrazin-2-one] | – | 16% @ 100
35 | O=c1c(Cc2ccccc2)nc(-c2ccc(C(F)(F)F)cc2)cn1O [Compound 43, 1-hydroxy-3-benzyl-5-[4-(trifluoromethyl)phenyl]hydropyrazin-2-one] | – | 0% @ 100
36 | O=c1c(Cc2ccc(-c3ccccc3)cc2)nc(-c2ccc(Cl)c(Cl)c2)cn1O [Compound 44, 5-(3,4-dichlorophenyl)-1-hydroxy-3-[(4-phenylphenyl)methyl] hydropyrazin-2-one] | – | 45% @ 100
37 | Cc1cc(-c2cn(O)c(=O)c(Cc3ccc(-c4ccccc4)cc3)n2)ccc1Cl [Compound 45, 5-(4-chloro-3-methylphenyl)-1-hydroxy-3-[(4-phenylphenyl)methyl] hydropyrazin-2-one] | – | 47% @ 100
38 | Cc1ccc(-c2cn(O)c(=O)c(Cc3ccc(-c4ccccc4)cc3)n2)cc1 [Compound 46, 1-hydroxy-5-(4-methylphenyl)-3-[(4-phenylphenyl)methyl]hydropyrazin-2-one] | – | 46% @ 100
39 | CCCCCc1ccc(-c2cn(O)c(=O)c(Cc3ccc(-c4ccccc4)cc3)n2)cc1 [Compound 47, 1-hydroxy-5-(4-pentylphenyl)-3-[(4-phenylphenyl)methyl]hydropyrazin-2-one] | – | 39% @ 100
40 | O=c1c(Cc2ccc(-c3ccccc3)cc2)nc(-c2ccc(C(F)(F)F)cc2)cn1O [Compound 48, 1-hydroxy-3-[(4-phenylphenyl)methyl]-5-[4-(trifluoromethyl)phenyl] hydropyrazin-2-one] | – | 25% @ 100

system: B anthracis; test: not given; conditions: monkey, in vivo; cited from earlier work

Row | Compound | monkeys that survived a lethal aerosol challenge
41 | O=C(O)c1cn(C2CC2)c2cc(N3CCNCC3)c(F)cc2c1=O [ciprofloxacin] | 8 of 9
42 | penicillin | 7 of 10

From patent US6436933B1 (priority 2001, dated 2002)
